Measured values from ChEMBL document CHEMBL1134625 (J Med Chem, 2001).

Legend:
[1] = target: Vasopressin V1a receptor (Homo sapiens, UniProt P37288)
[2] = target: T1, 5-hydroxytryptamine receptor 2C (Homo sapiens, UniProt P28335)
T1 sequence (P28335 whole entry): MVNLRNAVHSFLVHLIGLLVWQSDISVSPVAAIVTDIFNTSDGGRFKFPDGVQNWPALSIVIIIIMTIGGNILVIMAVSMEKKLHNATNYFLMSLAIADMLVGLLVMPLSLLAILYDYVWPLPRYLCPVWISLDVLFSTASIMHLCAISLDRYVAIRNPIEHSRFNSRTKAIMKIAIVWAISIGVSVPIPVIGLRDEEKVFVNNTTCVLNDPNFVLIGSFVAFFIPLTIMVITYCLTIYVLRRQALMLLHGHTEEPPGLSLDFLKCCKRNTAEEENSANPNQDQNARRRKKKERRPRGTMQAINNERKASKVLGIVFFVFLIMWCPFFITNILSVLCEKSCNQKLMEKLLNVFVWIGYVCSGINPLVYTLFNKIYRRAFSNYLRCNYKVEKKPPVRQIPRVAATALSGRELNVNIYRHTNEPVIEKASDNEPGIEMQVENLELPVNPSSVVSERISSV

[3] = target: D(3) dopamine receptor (Homo sapiens, UniProt P35462)
Chain of D(3) dopamine receptor (P35462 whole entry): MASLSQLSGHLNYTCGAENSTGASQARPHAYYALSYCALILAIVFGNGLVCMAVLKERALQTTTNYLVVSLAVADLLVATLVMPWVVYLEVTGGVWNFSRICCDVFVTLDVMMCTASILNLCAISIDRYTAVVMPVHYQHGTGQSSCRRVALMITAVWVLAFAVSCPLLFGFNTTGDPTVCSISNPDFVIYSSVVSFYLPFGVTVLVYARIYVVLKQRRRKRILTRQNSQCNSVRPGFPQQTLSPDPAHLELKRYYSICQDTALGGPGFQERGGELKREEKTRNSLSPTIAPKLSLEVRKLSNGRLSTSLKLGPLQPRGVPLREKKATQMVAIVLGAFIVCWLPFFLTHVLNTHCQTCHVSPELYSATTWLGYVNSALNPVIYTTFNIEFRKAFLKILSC

[4] = target: Voltage-gated L-type calcium channel (Homo sapiens, UniProt Q13936+Q13698+Q01668+O60840); type: protein assay
[5] = target: D(1B) dopamine receptor (Homo sapiens, UniProt P21918)
Chain of D(1B) dopamine receptor (P21918 whole entry): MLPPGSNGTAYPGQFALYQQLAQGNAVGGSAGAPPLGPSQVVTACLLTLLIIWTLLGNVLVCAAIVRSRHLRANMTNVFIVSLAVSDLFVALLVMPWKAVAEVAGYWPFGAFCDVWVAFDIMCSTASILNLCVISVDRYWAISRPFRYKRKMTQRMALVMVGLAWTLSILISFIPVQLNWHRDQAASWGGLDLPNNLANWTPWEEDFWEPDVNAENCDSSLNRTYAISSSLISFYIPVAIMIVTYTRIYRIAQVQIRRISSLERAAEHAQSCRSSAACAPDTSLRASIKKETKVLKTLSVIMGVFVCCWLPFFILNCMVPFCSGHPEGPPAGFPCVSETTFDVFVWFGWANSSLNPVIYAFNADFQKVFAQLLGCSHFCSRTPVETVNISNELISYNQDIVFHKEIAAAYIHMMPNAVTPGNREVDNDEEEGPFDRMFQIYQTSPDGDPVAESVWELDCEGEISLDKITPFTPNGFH

[6] = target: 5-hydroxytryptamine receptor 2A (Homo sapiens, UniProt P28223)
Chain of 5-hydroxytryptamine receptor 2A (P28223 whole entry): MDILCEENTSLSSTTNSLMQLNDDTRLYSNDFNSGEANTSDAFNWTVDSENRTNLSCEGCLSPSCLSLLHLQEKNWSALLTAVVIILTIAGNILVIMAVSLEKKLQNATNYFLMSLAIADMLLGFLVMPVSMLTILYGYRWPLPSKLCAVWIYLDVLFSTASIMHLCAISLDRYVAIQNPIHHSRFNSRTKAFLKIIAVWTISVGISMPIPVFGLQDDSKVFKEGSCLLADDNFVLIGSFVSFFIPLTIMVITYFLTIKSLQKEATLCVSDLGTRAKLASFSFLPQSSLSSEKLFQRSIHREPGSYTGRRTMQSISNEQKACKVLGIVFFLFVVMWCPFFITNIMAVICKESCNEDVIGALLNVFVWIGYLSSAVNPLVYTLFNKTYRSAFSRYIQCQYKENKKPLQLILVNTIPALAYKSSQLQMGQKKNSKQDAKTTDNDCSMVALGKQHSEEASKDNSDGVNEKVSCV

[7] = target: T2, Adrenergic receptor alpha-1 (Homo sapiens, UniProt P35348+P25100+P35368); type: protein assay
T2 sequence (P35348 whole entry): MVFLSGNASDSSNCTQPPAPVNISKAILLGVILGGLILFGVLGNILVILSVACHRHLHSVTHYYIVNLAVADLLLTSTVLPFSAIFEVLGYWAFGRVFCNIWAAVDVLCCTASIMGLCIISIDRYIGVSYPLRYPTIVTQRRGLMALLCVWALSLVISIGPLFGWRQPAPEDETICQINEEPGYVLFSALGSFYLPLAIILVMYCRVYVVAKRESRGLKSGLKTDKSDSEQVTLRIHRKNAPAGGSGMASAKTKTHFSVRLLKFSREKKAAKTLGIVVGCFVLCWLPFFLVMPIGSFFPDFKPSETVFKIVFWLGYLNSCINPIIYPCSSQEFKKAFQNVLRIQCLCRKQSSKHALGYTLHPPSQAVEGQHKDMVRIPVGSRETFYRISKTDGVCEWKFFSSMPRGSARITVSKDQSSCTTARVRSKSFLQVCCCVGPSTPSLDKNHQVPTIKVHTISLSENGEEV
T2 sequence (P25100 whole entry): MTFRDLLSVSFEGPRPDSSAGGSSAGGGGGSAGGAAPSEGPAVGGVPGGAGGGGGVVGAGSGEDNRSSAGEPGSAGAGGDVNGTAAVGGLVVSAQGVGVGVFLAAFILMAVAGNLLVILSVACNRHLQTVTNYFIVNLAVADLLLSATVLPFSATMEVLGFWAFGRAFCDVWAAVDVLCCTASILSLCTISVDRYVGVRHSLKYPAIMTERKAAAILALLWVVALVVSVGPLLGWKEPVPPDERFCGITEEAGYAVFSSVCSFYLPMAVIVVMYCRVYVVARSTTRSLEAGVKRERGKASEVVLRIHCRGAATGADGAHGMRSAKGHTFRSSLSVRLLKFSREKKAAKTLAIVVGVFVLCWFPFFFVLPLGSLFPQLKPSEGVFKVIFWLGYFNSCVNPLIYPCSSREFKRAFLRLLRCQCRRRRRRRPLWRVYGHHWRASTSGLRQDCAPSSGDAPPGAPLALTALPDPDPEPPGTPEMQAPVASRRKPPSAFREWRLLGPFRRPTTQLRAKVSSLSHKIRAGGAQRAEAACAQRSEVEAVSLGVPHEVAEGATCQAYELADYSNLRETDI
T2 sequence (P35368 whole entry): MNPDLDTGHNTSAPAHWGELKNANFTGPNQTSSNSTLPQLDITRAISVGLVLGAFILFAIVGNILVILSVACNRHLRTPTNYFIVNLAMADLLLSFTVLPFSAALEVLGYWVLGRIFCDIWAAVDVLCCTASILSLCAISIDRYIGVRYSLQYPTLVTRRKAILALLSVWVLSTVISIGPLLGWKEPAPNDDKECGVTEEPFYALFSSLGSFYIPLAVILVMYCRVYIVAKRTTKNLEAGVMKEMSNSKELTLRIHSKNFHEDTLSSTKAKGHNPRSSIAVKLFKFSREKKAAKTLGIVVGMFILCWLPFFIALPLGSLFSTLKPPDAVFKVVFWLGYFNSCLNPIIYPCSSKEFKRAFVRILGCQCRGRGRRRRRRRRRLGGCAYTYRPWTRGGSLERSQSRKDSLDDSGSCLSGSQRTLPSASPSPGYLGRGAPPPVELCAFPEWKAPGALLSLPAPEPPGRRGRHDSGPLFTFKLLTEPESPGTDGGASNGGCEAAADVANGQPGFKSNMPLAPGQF

[8] = target: 5-hydroxytryptamine receptor 6 (Homo sapiens, UniProt P50406)
Chain of 5-hydroxytryptamine receptor 6 (P50406 whole entry): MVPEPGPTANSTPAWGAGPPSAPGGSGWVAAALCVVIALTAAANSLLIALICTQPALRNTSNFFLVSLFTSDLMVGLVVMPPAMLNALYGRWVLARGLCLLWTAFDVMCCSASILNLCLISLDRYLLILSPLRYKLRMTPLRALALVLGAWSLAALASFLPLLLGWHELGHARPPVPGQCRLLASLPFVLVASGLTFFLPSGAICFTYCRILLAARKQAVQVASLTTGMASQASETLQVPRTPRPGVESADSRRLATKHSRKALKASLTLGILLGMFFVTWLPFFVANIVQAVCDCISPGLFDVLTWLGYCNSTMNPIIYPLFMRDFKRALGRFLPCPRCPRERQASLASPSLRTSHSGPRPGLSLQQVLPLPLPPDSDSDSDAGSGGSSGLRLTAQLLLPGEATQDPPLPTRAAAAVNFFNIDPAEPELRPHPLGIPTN

[9] = target: T3, D(4) dopamine receptor (Homo sapiens, UniProt P21917)
T3 sequence (P21917 whole entry): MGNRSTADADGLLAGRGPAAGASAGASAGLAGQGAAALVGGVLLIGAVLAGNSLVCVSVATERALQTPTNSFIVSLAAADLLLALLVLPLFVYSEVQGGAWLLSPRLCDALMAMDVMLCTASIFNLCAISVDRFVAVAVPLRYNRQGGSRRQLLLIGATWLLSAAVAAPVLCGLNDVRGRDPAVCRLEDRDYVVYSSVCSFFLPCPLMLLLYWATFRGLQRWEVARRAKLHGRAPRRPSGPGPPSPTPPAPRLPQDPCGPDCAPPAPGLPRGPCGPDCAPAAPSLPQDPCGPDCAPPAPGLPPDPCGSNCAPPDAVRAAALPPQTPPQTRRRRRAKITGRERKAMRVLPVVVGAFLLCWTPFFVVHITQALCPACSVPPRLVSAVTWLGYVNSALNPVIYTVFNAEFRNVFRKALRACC

[10] = target: 5-hydroxytryptamine receptor 7 (Homo sapiens, UniProt P34969)
Chain of 5-hydroxytryptamine receptor 7 (P34969 whole entry): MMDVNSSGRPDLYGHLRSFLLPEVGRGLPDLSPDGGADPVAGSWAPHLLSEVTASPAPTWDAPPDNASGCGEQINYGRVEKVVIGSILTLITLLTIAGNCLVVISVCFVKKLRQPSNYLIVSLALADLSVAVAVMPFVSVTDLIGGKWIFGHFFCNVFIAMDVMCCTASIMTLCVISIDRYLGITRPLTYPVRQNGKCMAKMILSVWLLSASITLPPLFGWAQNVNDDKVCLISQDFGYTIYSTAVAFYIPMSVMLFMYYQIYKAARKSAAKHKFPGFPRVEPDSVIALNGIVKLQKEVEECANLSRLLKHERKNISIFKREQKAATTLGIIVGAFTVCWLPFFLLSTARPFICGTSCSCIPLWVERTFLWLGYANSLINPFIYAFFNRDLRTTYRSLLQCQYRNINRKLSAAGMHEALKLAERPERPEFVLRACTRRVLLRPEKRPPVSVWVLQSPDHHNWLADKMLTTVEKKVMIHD

[11] = target: T4, Sodium-dependent dopamine transporter (Homo sapiens, UniProt Q01959)
T4 sequence (Q01959 whole entry): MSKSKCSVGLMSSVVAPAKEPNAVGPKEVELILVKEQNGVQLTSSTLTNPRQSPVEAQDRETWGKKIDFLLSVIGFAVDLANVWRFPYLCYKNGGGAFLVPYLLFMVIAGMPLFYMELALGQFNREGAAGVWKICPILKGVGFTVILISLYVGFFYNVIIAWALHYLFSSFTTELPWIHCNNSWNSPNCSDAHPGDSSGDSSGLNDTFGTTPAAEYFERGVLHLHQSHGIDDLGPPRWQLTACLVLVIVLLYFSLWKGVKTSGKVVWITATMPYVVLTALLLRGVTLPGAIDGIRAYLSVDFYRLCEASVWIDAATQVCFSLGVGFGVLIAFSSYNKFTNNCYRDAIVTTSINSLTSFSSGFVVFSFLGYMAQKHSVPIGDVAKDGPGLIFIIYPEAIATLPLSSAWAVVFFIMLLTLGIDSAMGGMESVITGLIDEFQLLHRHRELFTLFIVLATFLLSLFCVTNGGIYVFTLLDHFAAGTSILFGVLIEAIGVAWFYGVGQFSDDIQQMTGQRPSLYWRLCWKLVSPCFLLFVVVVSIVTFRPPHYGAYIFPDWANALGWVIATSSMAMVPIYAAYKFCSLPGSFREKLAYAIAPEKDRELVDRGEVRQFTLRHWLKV

[12] = target: T5, Adenosine receptor A3 (Homo sapiens, UniProt P0DMS8)
T5 sequence (P0DMS8 whole entry): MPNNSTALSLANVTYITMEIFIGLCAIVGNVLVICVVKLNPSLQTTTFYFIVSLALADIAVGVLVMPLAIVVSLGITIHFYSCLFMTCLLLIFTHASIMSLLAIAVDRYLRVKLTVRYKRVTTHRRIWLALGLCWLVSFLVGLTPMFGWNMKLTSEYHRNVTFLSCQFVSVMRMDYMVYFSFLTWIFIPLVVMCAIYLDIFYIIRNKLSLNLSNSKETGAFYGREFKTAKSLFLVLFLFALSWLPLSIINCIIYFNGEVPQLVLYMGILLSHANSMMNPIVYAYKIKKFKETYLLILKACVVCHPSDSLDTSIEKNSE

[13] = target: Histamine H1 receptor (Homo sapiens, UniProt P35367)
Chain of Histamine H1 receptor (P35367 whole entry): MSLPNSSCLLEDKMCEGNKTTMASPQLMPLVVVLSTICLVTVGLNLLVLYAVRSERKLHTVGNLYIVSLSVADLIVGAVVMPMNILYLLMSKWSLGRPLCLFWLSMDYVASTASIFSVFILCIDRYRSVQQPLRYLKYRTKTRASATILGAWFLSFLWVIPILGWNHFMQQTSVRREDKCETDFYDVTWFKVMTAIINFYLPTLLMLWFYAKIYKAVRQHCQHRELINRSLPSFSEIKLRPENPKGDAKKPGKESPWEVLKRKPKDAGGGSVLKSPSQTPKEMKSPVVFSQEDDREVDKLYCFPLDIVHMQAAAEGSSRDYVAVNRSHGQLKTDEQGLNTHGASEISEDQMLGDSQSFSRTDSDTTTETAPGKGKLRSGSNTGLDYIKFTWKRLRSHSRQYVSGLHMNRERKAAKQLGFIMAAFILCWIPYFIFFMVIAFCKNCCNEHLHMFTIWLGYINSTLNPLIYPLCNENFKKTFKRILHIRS

[14] = target: Histamine H2 receptor (Homo sapiens, UniProt P25021)
Chain of Histamine H2 receptor (P25021 whole entry): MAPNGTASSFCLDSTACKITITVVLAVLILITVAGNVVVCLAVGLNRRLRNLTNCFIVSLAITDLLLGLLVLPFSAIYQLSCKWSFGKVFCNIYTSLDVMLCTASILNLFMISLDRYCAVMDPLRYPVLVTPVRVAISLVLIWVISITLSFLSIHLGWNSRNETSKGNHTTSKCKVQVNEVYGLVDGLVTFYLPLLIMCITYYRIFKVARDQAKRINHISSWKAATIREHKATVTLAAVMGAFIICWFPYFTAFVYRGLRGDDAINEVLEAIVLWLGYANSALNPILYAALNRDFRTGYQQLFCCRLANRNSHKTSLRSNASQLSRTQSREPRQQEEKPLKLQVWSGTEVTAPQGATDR

[15] = target: T6, 5-hydroxytryptamine receptor 1A (Homo sapiens, UniProt P08908)
T6 sequence (P08908 whole entry): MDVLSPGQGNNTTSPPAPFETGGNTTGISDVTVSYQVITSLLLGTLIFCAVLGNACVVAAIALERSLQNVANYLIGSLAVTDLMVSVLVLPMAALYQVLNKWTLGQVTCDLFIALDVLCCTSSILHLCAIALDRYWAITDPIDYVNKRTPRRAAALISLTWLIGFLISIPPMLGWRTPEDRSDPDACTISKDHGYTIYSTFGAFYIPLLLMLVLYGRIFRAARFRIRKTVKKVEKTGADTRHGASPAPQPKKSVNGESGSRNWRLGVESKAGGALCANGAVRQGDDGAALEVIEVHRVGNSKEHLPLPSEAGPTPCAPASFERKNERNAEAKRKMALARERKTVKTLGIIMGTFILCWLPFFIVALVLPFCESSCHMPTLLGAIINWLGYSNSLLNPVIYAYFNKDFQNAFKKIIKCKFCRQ

[16] = target: 5-hydroxytryptamine receptor 5A (Homo sapiens, UniProt P47898)
Chain of 5-hydroxytryptamine receptor 5A (P47898 whole entry): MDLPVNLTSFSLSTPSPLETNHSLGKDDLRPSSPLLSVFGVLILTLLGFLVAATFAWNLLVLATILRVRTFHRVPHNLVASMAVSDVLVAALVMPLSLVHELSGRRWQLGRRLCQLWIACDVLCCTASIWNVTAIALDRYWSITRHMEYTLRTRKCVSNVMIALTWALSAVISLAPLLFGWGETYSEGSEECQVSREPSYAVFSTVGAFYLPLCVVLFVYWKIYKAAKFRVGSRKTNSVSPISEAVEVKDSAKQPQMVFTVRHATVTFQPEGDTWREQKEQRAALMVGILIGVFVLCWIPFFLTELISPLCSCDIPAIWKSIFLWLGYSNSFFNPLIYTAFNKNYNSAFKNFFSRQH

[17] = target: D(1A) dopamine receptor (Homo sapiens, UniProt P21728)
Chain of D(1A) dopamine receptor (P21728 whole entry): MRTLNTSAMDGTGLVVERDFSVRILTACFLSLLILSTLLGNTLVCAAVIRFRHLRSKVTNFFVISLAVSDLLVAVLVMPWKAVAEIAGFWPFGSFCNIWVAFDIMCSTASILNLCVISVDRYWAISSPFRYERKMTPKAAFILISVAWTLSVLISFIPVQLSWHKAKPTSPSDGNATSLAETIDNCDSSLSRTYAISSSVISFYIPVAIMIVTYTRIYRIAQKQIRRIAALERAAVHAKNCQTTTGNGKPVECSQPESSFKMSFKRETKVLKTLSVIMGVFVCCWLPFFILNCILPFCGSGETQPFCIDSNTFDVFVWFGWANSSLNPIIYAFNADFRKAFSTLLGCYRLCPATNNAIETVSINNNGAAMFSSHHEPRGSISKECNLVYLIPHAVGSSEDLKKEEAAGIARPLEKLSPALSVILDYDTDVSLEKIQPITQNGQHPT

[18] = target: T4, Sodium-dependent dopamine transporter; remark: listed apart in the source

Chain of Vasopressin V1a receptor (P37288 whole entry): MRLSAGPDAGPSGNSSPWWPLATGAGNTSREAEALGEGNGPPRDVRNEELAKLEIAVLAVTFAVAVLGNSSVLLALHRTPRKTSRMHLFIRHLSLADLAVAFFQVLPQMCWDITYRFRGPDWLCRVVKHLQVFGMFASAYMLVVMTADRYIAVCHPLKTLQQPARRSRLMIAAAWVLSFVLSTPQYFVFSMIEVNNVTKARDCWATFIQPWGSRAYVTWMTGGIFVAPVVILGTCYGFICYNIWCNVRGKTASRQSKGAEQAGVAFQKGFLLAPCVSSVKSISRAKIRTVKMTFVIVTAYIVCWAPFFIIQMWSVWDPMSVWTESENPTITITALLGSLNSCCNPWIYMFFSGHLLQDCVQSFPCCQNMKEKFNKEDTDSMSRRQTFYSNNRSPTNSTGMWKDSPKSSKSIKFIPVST

| SMILES | IC50 [1] | IC50 [2] | IC50 [3] | IC50 [4] | IC50 [5] | IC50 [6] | IC50 [7] | IC50 [8] | IC50 [9] | IC50 [10] | IC50 [11] | IC50 [12] | IC50 [13] | IC50 [14] | IC50 [15] | IC50 [16] | IC50 [17] | IC50 [18] |
| --- | --- | --- | --- | --- | --- | --- | --- | --- | --- | --- | --- | --- | --- | --- | --- | --- | --- | --- |
| O=C(OC1CCc2ccccc21)N1CCC2(CC1)C(=O)NCN2c1ccccc1 (stereo not given) | 5.16 µM | 0.345 µM | 3.18 µM | – | – | – | – | – | – | – | – | – | – | – | – | – | – | – |
| O=C(CCc1ccc(F)cc1)N1CCN(CCCC(c2ccc(F)cc2)c2ccc(F)cc2)CC1 | – | – | 0.977 µM | 4.3 µM | 3.02 µM | 1.03 µM | 1.17 µM | 1.35 µM | 0.716 µM | 1.17 µM | 1.28 µM | 5.08 µM | 1.66 µM | 1.34 µM | 1.11 µM | – | – | – |
| O=C(CCCc1ccccc1)N1CCN(CCCC(c2ccc(F)cc2)c2ccc(F)cc2)CC1 | – | 4.07 µM | 0.758 µM | 2.35 µM | 1.86 µM | 0.95 µM | 2.19 µM | 7.78 µM | 0.28 µM | 2.13 µM | 0.954 µM | – | 1.93 µM | 1.98 µM | – | 5.52 µM | 2.75 µM | – |
| O=C(OCc1cccc(Oc2ccccc2)c1)N1CCC2(CC1)C(=O)NCN2c1ccccc1 | – | 0.652 µM | – | – | – | – | – | – | – | – | – | 1.51 µM | – | – | 2.08 µM | – | – | 2.94 µM |
| N#Cc1ccc(CCOC(=O)N2CCN(CCCc3ccccc3)CC2)cc1 | – | – | – | – | – | 0.854 µM | – | – | 1.41 µM | – | – | – | 0.28 µM | – | 1.57 µM | – | – | – |
| O=c1[nH]c2ccccc2n(C2CCN(Cc3cc4c(cc3Cl)OCO4)CC2)c1=O | – | – | – | – | – | – | – | – | 6.55 µM | – | 1.52 µM | – | – | – | – | – | – | – |
